Experiments:
A549 [1] = experiment: Antiproliferative activity against human A549 cells assessed as inhibition of cell viability at 20 uM after 72 hrs by CCK-8 assay relative to control; type: functional
BGC-823 [2] = experiment: Antiproliferative activity against human BGC-823 cells assessed as inhibition of cell viability at 20 uM after 72 hrs by CCK-8 assay relative to control; type: functional
MCF7 [3] = experiment: Antiproliferative activity against human MCF7 cells assessed as inhibition of cell viability at 20 uM after 72 hrs by CCK-8 assay relative to control; type: functional
PC-3 [4] = experiment: Antiproliferative activity against human PC-3 cells assessed as inhibition of cell viability at 20 uM after 72 hrs by CCK-8 assay relative to control; type: functional
MDA-MB-231 [5] = experiment: Antiproliferative activity against human MDA-MB-231 cells assessed as inhibition of cell viability at 20 uM after 72 hrs by CCK-8 assay relative to control; type: functional
MCF7 [6] = experiment: Antiproliferative activity against human MCF7 cells assessed as inhibition of cell viability after 72 hrs by CCK-8 assay; type: functional, cell-based; details: MCF7, 72 h
MCF-10A = experiment: Cytotoxicity against human MCF-10A cells assessed as inhibition of cell viability after 72 hrs by CCK-8 assay; type: cell-based
BGC-823 [7] = experiment: Antiproliferative activity against human BGC-823 cells assessed as inhibition of cell viability after 72 hrs by CCK-8 assay; type: functional, cell-based; details: BGC-823, 72 h
A549 [8] = experiment: Antiproliferative activity against human A549 cells assessed as inhibition of cell viability after 72 hrs by CCK-8 assay; type: functional, cell-based; details: A549, 72 h
MDA-MB-231 [9] = experiment: Antiproliferative activity against human MDA-MB-231 cells assessed as inhibition of cell viability after 72 hrs by CCK-8 assay; type: functional, cell-based; details: MDA-MB-231, 72 h
PC-3 [10] = experiment: Antiproliferative activity against human PC-3 cells assessed as inhibition of cell viability after 72 hrs by CCK-8 assay; type: functional, cell-based; details: PC-3, 72 h
[11] = Selectivity index, ratio of IC50 for human MCF-10A cells to IC50 for human MCF-7 cells

| IC50 (MCF7 [6]) | IC50 (BGC-823 [7]) | IC50 (A549 [8]) | IC50 (MDA-MB-231 [9]) | IC50 (PC-3 [10]) | Compound | inhibition at 20 µM (A549 [1]) | inhibition at 20 µM (BGC-823 [2]) | inhibition at 20 µM (MCF7 [3]) | inhibition at 20 µM (PC-3 [4]) | inhibition at 20 µM (MDA-MB-231 [5]) | IC50 (MCF-10A) | Ratio IC50 [11] |
| --- | --- | --- | --- | --- | --- | --- | --- | --- | --- | --- | --- | --- |
| – | – | – | – | – | COc1ccc(C2Oc3ccccc3-c3ccc(OC)cc32)cc1 (stereo unspecified) | 43.6% | 47.1% | 45.5% | 44.7% | 43.2% | – | – |
| – | – | – | – | – | CCOc1ccc(C2Oc3ccccc3-c3ccccc32)cc1 (stereo unspecified) | 34.9% | 26.4% | 32% | 34% | 35.6% | – | – |
| 15.2 µM | 9.23 µM | 17 µM | 22.5 µM | 7.86 µM | COc1ccc2c(c1)-c1ccccc1OC2c1cccc(OC)c1OC (stereo unspecified) | – | – | – | – | – | 47.9 µM | 3.15 |
| – | – | – | – | – | c1ccc2c(c1)OC(c1cccc3ccccc13)c1ccccc1-2 (stereo unspecified) | 31.5% | 26.1% | 26.4% | 34% | 30.6% | – | – |
| – | – | – | – | – | COc1ccc(C2Oc3cc(C)ccc3-c3ccccc32)cc1 (stereo unspecified) | 22.6% | 32.9% | 30.3% | 38.1% | 25.6% | – | – |
| – | – | – | – | – | COc1ccc2c(c1)-c1ccccc1OC2c1ccc(Cl)cc1 (stereo unspecified) | 36% | 37% | 35.6% | 41.1% | 32.4% | – | – |
| 9.29 µM | 8.52 µM | 8.54 µM | 7.41 µM | 9.62 µM | COc1ccc2c(c1)-c1ccccc1OC2c1ccccc1C (stereo unspecified) | 60.9% | 64.2% | 69.7% | 66% | 59.8% | 44.6 µM | 4.8 |
| – | – | – | – | – | COc1ccc2c(c1)-c1ccccc1OC2c1ccc(C)cc1 (stereo unspecified) | 31.1% | 37.4% | 40.4% | 38.9% | 35.7% | – | – |
| 9.53 µM | 8.99 µM | 11.7 µM | 13.8 µM | 10.1 µM | COc1cccc(C2Oc3ccccc3-c3cc(OC)c(OC)cc32)c1 (stereo unspecified) | – | – | – | – | – | 60.3 µM | 6.33 |
| – | – | – | – | – | COc1ccc(C2Oc3ccccc3-c3cc(OC)ccc32)cc1 (stereo unspecified) | 49.6% | 50.6% | 59.6% | 55.4% | 52.7% | – | – |
| – | – | – | – | – | COc1ccc2c(c1)-c1ccccc1OC2c1cccc(C)c1 (stereo unspecified) | 34.4% | 32% | 33.8% | 42.3% | 24.9% | – | – |
| – | – | – | – | – | COc1ccc2c(c1)-c1ccccc1OC2c1ccc(SC)cc1 (stereo unspecified) | 31.8% | 39.4% | 41.4% | 39.7% | 35.3% | – | – |
| – | – | – | – | – | COc1ccc2c(c1)-c1ccccc1OC2c1ccc(Br)cc1 (stereo unspecified) | 38.8% | 24.1% | 40.5% | 43.9% | 31% | – | – |
| – | – | – | – | – | CCOc1ccc(C2Oc3ccccc3-c3cc(OC)ccc32)cc1 (stereo unspecified) | 40.5% | 26.6% | 41.1% | 45% | 28.3% | – | – |
| – | – | – | – | – | COc1ccc(C2Oc3ccc(C)cc3-c3ccccc32)cc1 (stereo unspecified) | 29.4% | 27.6% | 32.9% | 36.3% | 23.2% | – | – |
| – | – | – | – | – | COc1ccc2c(c1)-c1ccccc1OC2c1ccc(O[Si](C)(C)C(C)(C)C)cc1 (stereo unspecified) | 31.2% | 25.5% | 31.4% | 36.5% | 31% | – | – |
| – | – | – | – | – | Cc1ccc(C2Oc3ccccc3-c3ccccc32)cc1 (stereo unspecified) | 23.5% | 25% | 30.2% | 26% | 23.7% | – | – |
| – | – | – | – | – | COc1ccc2c(c1)-c1ccccc1OC2c1ccccc1 (stereo unspecified) | 32% | 30.5% | 25.6% | 31.8% | 30.6% | – | – |
| 24 µM | – | – | – | – | CC#C[C@]1(O)CC[C@H]2[C@@H]3CCC4=CC(=O)CCC4=C3[C@@H](c3ccc(N(C)C)cc3)C[C@@]21C [MIFEPRISTONE] | – | – | – | – | – | – | – |
| – | – | – | – | – | COc1ccc(C2Oc3ccccc3-c3ccccc32)cc1 (stereo unspecified) | 29.9% | 34.1% | 34.4% | 37% | 21.2% | – | – |
| – | – | – | – | – | COc1ccc(C2Oc3ccc(Br)cc3-c3ccccc32)cc1 (stereo unspecified) | 28.9% | 37.8% | 26.6% | 36.1% | 36.1% | – | – |
| – | – | – | – | – | COc1ccc2c(c1)-c1ccccc1OC2c1cccs1 (stereo unspecified) | 43.9% | 28.2% | 53.1% | 53.7% | 38.6% | – | – |
| – | – | – | – | – | COc1ccc(C2Oc3ccc(OC)cc3-c3ccccc32)cc1 (stereo unspecified) | 36.2% | 42.5% | 34.7% | 36.3% | 28.2% | – | – |
| 8.92 µM | 26.1 µM | 23.5 µM | 15.2 µM | 21.4 µM | COc1ccc2c(c1)-c1ccccc1OC2c1ccccc1OC (stereo unspecified) | – | – | – | – | – | 61.6 µM | 6.9 |
| 9.94 µM | 13.2 µM | 17 µM | 18.6 µM | 14.3 µM | COc1cccc(C2Oc3ccccc3-c3cc(OC)ccc32)c1 (stereo unspecified) | 56.3% | 51.9% | 69.4% | 57% | 66.1% | 58.5 µM | 5.88 |
| – | – | – | – | – | c1ccc(C2Oc3ccccc3-c3ccccc32)cc1 (stereo unspecified) | 23.8% | 18.8% | 25.3% | 19.2% | 27.2% | – | – |
